Measurements from US4057530A, “2-Phenyl-indole derivatives and process for preparing the same” (priority 1974, dated 1977).
Where two headings read alike, the source gives them in different places.

Experiments:
[1] = Static thermostability of stabilized resin, simplified method (GARDNER sub-scale), Compound E; settings: 185° C
Method: (§1) The stabilizing power of the substances of the invention was studied from two points of view:
(§2) These studies were performed with six different formulae of vinyl resins (hereinafter referred to as Compounds).
(§3) The different compounds were mixed and calendered in a mixer of which the cylinders were heated to 160° C. The rigid sheets so obtained were then heated in an oven to a temperature between 180° C and 215° C, until incipient carbonization.
(§4) A stove with rotating drums, ventilated and equipped with a thermostat was used for this operation. In the trials described hereunder, the behaviour of a sheet containing the stabilizer to be tested was compared to that of a sheet of the same formula but containing 2-phenyl-indole as stabilizer.
(§5) 2. It is also possible to use a simplified method which is more rapid and with which valid results are also obtained: a reference scale is drawn up with sheets of thermally treated polyvinyl chloride, of which the colourations have been definitely determined in GARDNER degrees as above. A GARDNER sub-scale is thus obtained in polyvinyl chloride sheets which can be directly compared to the sheets to be tested without using the comparator.

[2] = Static thermostability of stabilized resin, simplified method (GARDNER sub-scale), Compound D; settings: 185° C
Method: as §1, §2, §3, §4, §5

[3] = system: mice; assay: Acute toxicity by oral route in mice (LD50); assay type: in vivo; settings: LD50 study
Method: (§6) The study of the acute toxicity of the stabilizers listed below was carried out by determining the dose of substance which provoked the death of 50% of the treated animals (LD50). A gummy suspension of the substance under study was administered by oral route to groups of at least ten mice and the following results were observed: […]

[4] = Acute toxicity by oral route in mice (LD50); assay type: in vivo; settings: mouse, in vivo, gummy suspension
Method: as §6

[5] = system: mice; assay type: in vivo
Method: as §6

[6] = Static thermostability of stabilized resin, simplified method (GARDNER sub-scale), Compound A; settings: 210° C
Method: as §1, §2, §3, §4, §5
Finally, trials were carried out with Stabilizers 15, 16 and 17 and with 2-phenyl-indole. Compound A was used and the temperature was 210° C.

CCCCC(CC)COc1ccc(-c2cc3ccccc3[nH]2)cc1 (stereo not shown) [Stabilizer 7, 2-(2"-ethyl-4'-hexyloxy-phenyl)-indole]
Colouration of sheet (GARDNER sub-scale) ([1]; 0 min): < 1 GARDNER degrees | Colouration of sheet (GARDNER sub-scale) ([1]; 10 min): < 1 GARDNER degrees | Colouration of sheet (GARDNER sub-scale) ([1]; 20 min): < 2 GARDNER degrees | Colouration of sheet (GARDNER sub-scale) ([1]; 30 min): < 3 GARDNER degrees | Colouration given to the co-polymer [2]: less yellow with Stabilizer 7 than with 2-phenyl-indole | Static thermostability compared with 2-phenyl-indole [2]: markedly superior to 2-phenyl-indole | Colouration of sheet (GARDNER sub-scale) ([2]; 0 min): < 1 GARDNER degrees | Colouration of sheet (GARDNER sub-scale) ([2]; 10 min): < 2 GARDNER degrees | Colouration of sheet (GARDNER sub-scale) ([2]; 20 min): 2 GARDNER degrees | Colouration of sheet (GARDNER sub-scale) ([2]; 30 min): < 3 GARDNER degrees | Toxic symptoms [3]: none | LD50 [4]: > 2000 mg/kg

CCCCSc1ccc(-c2cc3ccccc3[nH]2)cc1 [Stabilizer 15, 2-(4'-butylthio-phenyl)-indole]
LDO (maximal dose which does not provoke any death) ([5]; mouse, in vivo, po): > 3000 mg/kg | Toxic symptoms ([5]; oral, mice, LDO study): none | Static thermostability compared with 2-phenyl-indole [6]: very rapidly found to be superior to 2-phenyl-indole | Colouration of sheet (GARDNER sub-scale) ([6]; 0 min): 1 GARDNER degrees | Colouration of sheet (GARDNER sub-scale) ([6]; 3 min): 1 GARDNER degrees | Colouration of sheet (GARDNER sub-scale) ([6]; 6 min): 2 GARDNER degrees | Colouration of sheet (GARDNER sub-scale) ([6]; 9 min): 5 GARDNER degrees | Colouration of sheet (GARDNER sub-scale) ([6]; 12 min): 10 GARDNER degrees | Colouration of sheet (GARDNER sub-scale) ([6]; 15 min): 13 GARDNER degrees | Colouration of sheet (GARDNER sub-scale) ([6]; 18 min): burnt
